This is an account of results in ChEMBL document CHEMBL6182931, “Chemical Evolution of Aplithianine Class of Serine/Threonine Kinase Inhibitors” (J Med Chem, 2025).

The test system of one data set is MOLT-4. Description: Antiproliferative activity against human MOLT-4 cells assessed as growth inhibition. It counts as functional.
A further data set relates to SR. Description: Antiproliferative activity against human SR cells assessed as growth inhibition. It counts as functional.
A further data set deals with LOX IMVI. Description: Antiproliferative activity against human LOX IMVI cells assessed as growth inhibition. It counts as functional.
For a further data set, the system named is OVCAR-4. Description: Antiproliferative activity against human OVCAR-4 cells assessed as growth inhibition. The format is functional, cell-based.
The nature of data set [1]: Inhibition of DNAJB1-PKAcalpha (unknown origin) overexpressed in mouse NIH/3T3 cells assessed as inhibition of CREB phosphorylation at Ser133 residue preincubated for 30 mins followed by forskolin addition and measured after 30 mins by fluorescence based multilabel reader analysis. The format is cell-based. Conditions: NIH3T3.
Another data set relates to NCI/ADR-RES. Description: Antiproliferative activity against human NCI/ADR-RES cells assessed as growth inhibition. The format is functional, cell-based.
The subject of another data set is MDA-MB-468. Briefly: Antiproliferative activity against human MDA-MB-468 cells assessed as growth inhibition. It counts as functional, cell-based.
The species named for data set [2] is Homo sapiens. Description: Induction of thermal stabilization of His-tagged DNAJB1-PKAcalpha (unknown origin) assessed as change in melting temperature incubated for 15 min by differential scanning fluorometric analysis.
Data set [3] in a line: Inhibition of DNAJB1-PKAcalpha (unknown origin) using biotinylated-peptide substrate CREB incubated for 45 mins in presence of ATP and cAMP by ELISA. More on the design: species or system Homo sapiens. (ELISA stands for enzyme-linked immunosorbent assay.)
For data set [4], the species on record is Homo sapiens. Description: Induction of thermal stabilization of His-tagged DNAJB1-PKAcalpha (unknown origin) incubated for 15 min by differential scanning fluorometric analysis. In general terms: Differential scanning fluorimetry follows unfolding on heating by fluorescence.
In data set [5] the target is T1, cGMP-dependent protein kinase 1 (Homo sapiens) (UniProt Q13976).
T1 sequence (whole entry): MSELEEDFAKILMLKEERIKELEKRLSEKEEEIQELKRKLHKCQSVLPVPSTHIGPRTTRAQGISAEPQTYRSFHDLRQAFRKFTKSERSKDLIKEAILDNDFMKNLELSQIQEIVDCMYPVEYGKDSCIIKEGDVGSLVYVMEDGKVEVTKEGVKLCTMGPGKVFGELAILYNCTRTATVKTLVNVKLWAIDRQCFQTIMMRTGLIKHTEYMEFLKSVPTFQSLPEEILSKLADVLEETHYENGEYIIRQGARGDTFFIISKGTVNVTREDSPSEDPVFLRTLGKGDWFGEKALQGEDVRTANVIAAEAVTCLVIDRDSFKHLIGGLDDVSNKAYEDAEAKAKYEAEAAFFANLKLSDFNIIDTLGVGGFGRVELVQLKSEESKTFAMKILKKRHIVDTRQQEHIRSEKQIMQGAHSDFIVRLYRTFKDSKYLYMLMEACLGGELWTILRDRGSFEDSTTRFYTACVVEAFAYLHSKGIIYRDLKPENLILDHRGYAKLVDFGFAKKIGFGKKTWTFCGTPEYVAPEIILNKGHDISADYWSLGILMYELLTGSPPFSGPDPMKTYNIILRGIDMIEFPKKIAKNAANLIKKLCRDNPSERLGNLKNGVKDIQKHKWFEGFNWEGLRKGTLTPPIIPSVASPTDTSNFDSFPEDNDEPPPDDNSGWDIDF
Conditions: dose 50.0 nM.
Description: Inhibition of human PKG1alpha at 50 nM in presence of ATP by radiometric Hotspot kinase assay

Data set [6] deals with Dual specificity protein kinase CLK1 (Homo sapiens) (UniProt P49759). Briefly: Inhibition of human CLK1 at 50 nM in presence of ATP by radiometric Hotspot kinase assay relative to control.
The target in data set [7] is cAMP-dependent protein kinase catalytic subunit alpha (Homo sapiens) (UniProt P17612). The conditions noted are these: dose 50.0 nM.
Description: Inhibition of human PKAalpha at 50 nM in presence of ATP by radiometric Hotspot kinase assay relative to control
Another data set has as its target Albumin (Homo sapiens, UniProt P02768). Description: Binding affinity to human serum albumin assessed as protein binding at 10 uM by equilibrium dialysis technique relative to control. The format is ADME. Conditions: isolated protein. A general note: In equilibrium dialysis only unbound substance equilibrates across the membrane.
In data set [8] the target is Dual specificity protein kinase CLK2 (Homo sapiens) (UniProt P49760). Description: Inhibition of human CLK2 at 50 nM in presence of ATP by radiometric Hotspot kinase assay relative to control.
Data set [9] addresses cAMP-dependent protein kinase catalytic subunit beta (Homo sapiens) (UniProt P22694). Description: Inhibition of human PKAbeta at 50 nM in presence of ATP by radiometric Hotspot kinase assay.

Activity calls are given as the source filed them. The calls are words filed in the database; no cut-off is given here. Bounds are passed on as bounds.

Chain of Dual specificity protein kinase CLK1 (Homo sapiens) (P49759 whole entry, looked up): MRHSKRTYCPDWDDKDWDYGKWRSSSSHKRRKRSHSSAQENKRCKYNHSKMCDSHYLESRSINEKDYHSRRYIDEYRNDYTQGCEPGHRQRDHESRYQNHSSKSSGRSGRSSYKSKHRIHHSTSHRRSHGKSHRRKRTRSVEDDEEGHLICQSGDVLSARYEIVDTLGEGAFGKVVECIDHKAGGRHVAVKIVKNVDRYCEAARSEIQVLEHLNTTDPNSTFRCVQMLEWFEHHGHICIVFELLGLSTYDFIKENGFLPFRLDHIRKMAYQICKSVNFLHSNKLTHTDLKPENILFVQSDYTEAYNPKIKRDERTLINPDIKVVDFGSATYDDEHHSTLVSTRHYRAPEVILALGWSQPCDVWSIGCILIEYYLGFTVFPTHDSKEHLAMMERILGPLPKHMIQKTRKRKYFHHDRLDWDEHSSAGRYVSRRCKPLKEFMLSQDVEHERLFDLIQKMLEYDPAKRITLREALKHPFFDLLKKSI
Chain of Dual specificity protein kinase CLK2 (Homo sapiens) (P49760 whole entry, looked up): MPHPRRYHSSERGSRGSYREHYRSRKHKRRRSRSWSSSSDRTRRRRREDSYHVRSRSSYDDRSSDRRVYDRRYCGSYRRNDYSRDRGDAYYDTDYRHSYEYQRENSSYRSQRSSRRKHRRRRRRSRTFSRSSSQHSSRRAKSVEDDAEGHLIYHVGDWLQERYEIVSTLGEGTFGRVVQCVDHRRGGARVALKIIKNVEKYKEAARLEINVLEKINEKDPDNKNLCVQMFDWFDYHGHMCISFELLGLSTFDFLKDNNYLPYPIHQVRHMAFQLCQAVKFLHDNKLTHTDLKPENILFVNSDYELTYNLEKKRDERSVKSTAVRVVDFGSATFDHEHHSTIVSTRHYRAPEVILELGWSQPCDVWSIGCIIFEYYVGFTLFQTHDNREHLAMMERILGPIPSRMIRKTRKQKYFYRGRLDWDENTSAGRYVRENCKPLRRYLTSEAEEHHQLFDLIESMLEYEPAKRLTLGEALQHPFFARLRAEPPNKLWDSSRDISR
Chain of Albumin (P02768 whole entry): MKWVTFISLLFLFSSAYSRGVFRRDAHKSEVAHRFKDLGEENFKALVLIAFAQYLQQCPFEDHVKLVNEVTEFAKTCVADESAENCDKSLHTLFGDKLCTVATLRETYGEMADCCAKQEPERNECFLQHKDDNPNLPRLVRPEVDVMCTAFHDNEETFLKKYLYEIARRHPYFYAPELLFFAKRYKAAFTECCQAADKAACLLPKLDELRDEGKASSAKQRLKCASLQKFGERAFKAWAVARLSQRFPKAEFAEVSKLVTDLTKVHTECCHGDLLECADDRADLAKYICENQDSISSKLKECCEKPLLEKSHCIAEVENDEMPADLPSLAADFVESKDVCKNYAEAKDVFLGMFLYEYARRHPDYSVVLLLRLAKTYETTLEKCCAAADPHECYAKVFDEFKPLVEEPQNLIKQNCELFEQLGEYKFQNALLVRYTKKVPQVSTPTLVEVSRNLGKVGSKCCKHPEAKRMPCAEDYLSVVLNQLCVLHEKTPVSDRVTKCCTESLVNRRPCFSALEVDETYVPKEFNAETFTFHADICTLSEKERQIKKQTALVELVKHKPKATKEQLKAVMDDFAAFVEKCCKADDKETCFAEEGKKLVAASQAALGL

Regarding `C[C@@]1(N)CCCN(C(=O)C2=CN(c3ncnc4[nH]ccc34)CCS2)C1`, the result in the data set on MOLT-4, with SR and in the data set with MDA-MB-468 was Active. Also, the GI50 with LOX IMVI was more than 1000 nM. Further, the result in the data set with OVCAR-4 and in the data set on NCI/ADR-RES was inactive. Also, the IC50 in data set [1] was 4400 nM.
With `C1=C(c2ccnc3[nH]ccc23)SCCN1c1ccncn1`, the outcome in the data set with MOLT-4, in the data set with SR and in the data set with MDA-MB-468 was Active. Further, the concentration for 50% growth inhibition (GI50) in the data set on LOX IMVI is more than 1000 nM. For the same compound, the outcome with OVCAR-4 and in the data set on NCI/ADR-RES was inactive. Further, the ΔTm in the data set filed under Homo sapiens [2] was determined as 7.9 °C. Besides, the half-maximal inhibitory concentration (IC50) in data set [1] is 282 nM; in data set [3], 6.3 nM. Moreover, in the data set filed under Homo sapiens [4], the Activity result is “Dose-dependent-effect”.
As for `Cn1cc(C2=CN(c3ncnc4[nH]ccc34)CCS2)cn1`, the result in the data set on MOLT-4, in the data set on SR and with MDA-MB-468 was Active. For the same compound, in the data set on LOX IMVI, the 50% growth inhibitory concentration (GI50) was more than 1000 nM. The outcome in the data set on OVCAR-4 and with NCI/ADR-RES was inactive. The IC50 in [3] came out at 440 nM.
As to `Cn1cncc1C1=CN(c2ncnc3[nH]ccc23)CCS1`, the outcome in the data set with MOLT-4, with SR and in the data set on MDA-MB-468 was Active. For the same compound, the GI50 with LOX IMVI was more than 1000 nM. Besides, the outcome in the data set with OVCAR-4 and in the data set with NCI/ADR-RES was inactive. The IC50 was more than 10000 nM in data set [1] and 150 nM in data set [3].
On to `C[C@H]1CCN(C(=O)C2=CN(c3ncnc4[nH]ccc34)CCS2)C[C@@H]1N`, for which the half-inhibitory concentration (IC50) in data set [1] is 2500 nM; in data set [3] it was 7 nM.
Regarding `C[C@@]1(N)CCCN(C(=O)C2=CN(c3ccnc4[nH]ccc34)CCS2)C1`, the figures for the half-maximal inhibitory concentration (IC50) in data set [1] and in data set [3] were 3600 nM and 16 nM, respectively.
On to `Cn1cncc1C1=CN(c2ccnc3[nH]ccc23)CCS1`, for which the inhibition result in data set [5] and in [6] was “Active” in each case. The outcome in the data set with MOLT-4, in the data set with SR and in the data set on MDA-MB-468 was Active. Also, in the data set on LOX IMVI, the GI50 is more than 1000 nM. The outcome with OVCAR-4 and in the data set on NCI/ADR-RES was inactive. In data set [7], the inhibition was found to be 1.7%. Further, the IC50 in data set [3] stood at 860 nM.
As for `Cc1c[nH]c2ncnc(N3C=C(c4cncn4C)SCC3)c12`, the outcome with MOLT-4, with SR and in the data set with MDA-MB-468 was Active. In addition, the 50% growth inhibitory concentration (GI50) in the data set with LOX IMVI was more than 1000 nM. The result in the data set with OVCAR-4 and with NCI/ADR-RES was inactive. The half-maximal inhibitory concentration (IC50) came out at 8200 nM in data set [1] and 92 nM in data set [3].
Turning to `C1=C(C2=CN(c3ncnc4[nH]ccc34)CCS2)CCNC1`, the result in the data set on MOLT-4, with SR and in the data set with MDA-MB-468 was Active. Further, in the data set with LOX IMVI, the GI50 is more than 1000 nM. Besides, the outcome in the data set with OVCAR-4 and with NCI/ADR-RES was inactive.
With `Cn1cncc1C1=CN(c2ncnc3[nH]cnc23)CCS1`, the inhibition entry in [6], in [8] and in [9] was “Active” throughout. In addition, the PB at Albumin was 98%.
As to `C1=C(c2ccnc3[nH]ccc23)SCCN1c1ncnc2sccc12`, the result in the data set with MOLT-4, in the data set on SR and with MDA-MB-468 was Active. For the same compound, the GI50 in the data set on LOX IMVI is more than 1000 nM. Further, the result in the data set with OVCAR-4 and in the data set with NCI/ADR-RES was inactive. Moreover, the IC50 in data set [3] was 310 nM.
Regarding `Cc1cc(N2C=C(c3ccnc4[nH]ccc34)SCC2)ncn1`, the result in the data set on MOLT-4, in the data set with SR and in the data set on MDA-MB-468 was Active. Further, the concentration for 50% growth inhibition (GI50) with LOX IMVI is more than 1000 nM. The result in the data set with OVCAR-4 and in the data set on NCI/ADR-RES was inactive. Besides, the IC50 in [3] is 200 nM.
Turning to `C[C@@H]1C[C@@H](N)CN(C(=O)C2=CN(c3ncnc4[nH]ccc34)CCS2)C1`, the result with MOLT-4, in the data set with SR and with MDA-MB-468 was Active. In addition, the concentration for 50% growth inhibition (GI50) in the data set with LOX IMVI was more than 1000 nM. The outcome in the data set on OVCAR-4 and with NCI/ADR-RES was inactive. Further, the half-inhibitory concentration (IC50) was determined as 2700 nM in data set [1] and 6 nM in data set [3].
For the compound `C1=C(c2ccnc3[nH]ccc23)SCCN1c1ncnc2occc12`, the outcome in the data set with MOLT-4, in the data set with SR and with MDA-MB-468 was Active. For the same compound, the GI50 with LOX IMVI was more than 1000 nM. Moreover, the result with OVCAR-4 and in the data set on NCI/ADR-RES was inactive. Also, the IC50 in data set [3] stood at 19 nM.
For the compound `Cn1cnc(Br)c1C1=CN(c2ncnc3[nH]cnc23)CCS1`, the result with MOLT-4, in the data set with SR and with MDA-MB-468 was Active. In addition, in the data set on LOX IMVI, the 50% growth inhibitory concentration (GI50) was more than 1000 nM. In addition, the result with OVCAR-4 and in the data set with NCI/ADR-RES was inactive. Moreover, the shift in melting temperature (ΔTm) in the data set filed under Homo sapiens [2] turned out to be 3.1 °C. For the same compound, the Activity entry in the data set listed under Homo sapiens [4] was “Dose-dependent-effect”.
With `O=C(N[C@@H]1CCCNC1)C1=CN(c2ncnc3[nH]ccc23)CCS1`, the IC50 in data set [3] was found to be 690 nM.
In the case of `O=C(C1=CN(c2ncnc3[nH]ccc23)CCS1)N1C[C@H]2CCCN[C@H]2C1`, in data set [3], the IC50 worked out at 310 nM.
On to `CN[C@@H]1CCCN(C(=O)C2=CN(c3ncnc4[nH]cc(C)c34)CCS2)C1`, for which the IC50 in [3] was 50 nM.
Take `NCCCCCNC(=O)C1=CN(c2ncnc3[nH]ccc23)CCS1`: the IC50 in data set [3] came to 920 nM.
For `O=C(N[C@H]1CCCNC1)C1=CN(c2ncnc3[nH]ccc23)CCS1`, in data set [3], the IC50 turned out to be 66 nM.

The GI50 is the concentration that inhibits growth by half. Usually IC50 stands for the point on the concentration scale where inhibition reaches its midpoint. What is called ΔTm is the shift of the melting midpoint relative to a reference. The inhibition is the share of the control response that was lost under treatment.
